Data as given in patent US5711966A, “Method of treating malaria with desbutylhalofantrine” (priority 1996, dated 1998).
Entries after “also recorded” stand apart in the source; their conditions may differ. Where two headings read alike, the source gives them in different places.

How the values were obtained:
[1] = system: delayed rectifier potassium channel; experiment: Block of repolarizing current (delayed rectifier potassium channel) in isolated ventricular myocytes, whole cell patch-clamp; format: cell-based; details: isolated feline myocytes
Experimental: (§1) A comparison of the parent drug, halofantrine with the metabolite desbutylhalofantrine was conducted to determine which agent was primarily responsible for QT interval prolongation. The effects of halofantrine and its active metabolite (N-desbutylhalofantrine) on repolarization were examined in an isolated perfused heart model. […] In an attempt to further elucidate the mechanism for QT interval prolongation, the effects of racemic halofantrine, its stereoisomers and N-desbutylhalofantrine on repolarizing currents in isolated ventricular myocytes were studied using patch-clamp techniques.
Individual Cardiac Myocytes:
The cardiac electro-pharmacologic effects of halofantrine, its stereoisomers and N-desbutylhalofantrine on repolarizing currents such as the delayed rectifier potassium channel were studied in feline ventricular myocytes in vitro by the method described by Woosley, et al. (JAMA 269:1532-1536 (1993)). Briefly, rod-shaped and quiescent ventricular cells were obtained and used for electrophysiological recordings using the whole cell, single-suction pipette, voltage-clamp ("patch-clamp") technique. Computer-controlled voltage clamp pulses (duration 750 ms) were used to elicit currents. Current signals were directed to a computer for storage and data analysis. […]

[2] = cited from earlier work; for arrhythmia torsades de pointes: in patients receiving the drug; for cardiotoxicity / potentially fatal arrhythmias: use for treatment of malaria
[3] = system: isolated perfused cat heart (QT interval); experiment: QT interval prolongation in isolated perfused heart; details: concentrations from 1 to 20 μM, pacing cycle length 400 msec
Experimental: Comparative studies evaluating prolongation of the QT interval using quinidine, halofantrine, and desbutylhalofantrine were performed on isolated perfused animal hearts. […] The ability to treat malaria with this metabolite without causing cardiotoxicity greatly improves the safety of antimalarial treatment.
as §1
The effects of halofantrine and its metabolite on repolarization were examined in the isolated perfused cat heart by the method of Woosley, et al. (JAMA 269:1532-1536 (1993)). Briefly, hearts were obtained from healthy, mature anesthetized cats and perfused in a Lagendorff apparatus maintained at 37° C. […] The AV node was destroyed by cautery to produce complete heart block and allow observations at slow cycle lengths. […]

[4] = system: Plasmodium falciparum; experiment: In vitro studies against various clones of Plasmodium falciparum; format: cell-based
Experimental: Dosage of 500 mg every six hours for three doses on day one with repeat of that dosage on day 7 for a total dosage of 3000 mg is appropriate for most treatment purposes in adults. However, total dosage range of 50 to 5000 mg can be given depending on the condition, age and size of the patient. Desbutylhalofantrine may also be given at dosage of 50 to 1000 mg as a prophylactic measure. Dosage may be given daily or one day per week. Again, dosage will be determined by the clinician in accord with the needs of the particular patient. When given as a prophylactic agent, the administration may be continued for several months.

[5] = system: malaria; details: teaching of U.S. Pat. No. 5,250,734 to Rossignol, et al; cited from earlier work

Structure (SMILES)	arrhythmia torsades de pointes [2]	prolongation of the QT interval [3]	further results
CCCCN(CCCC)CCC(O)c1cc2c(Cl)cc(Cl)cc2c2cc(C(F)(F)F)ccc12 (racemic) [halofantrine]	torsades de pointes has been seen in patients	resulted in prolongation of the QT interval	block of the delayed rectifier potassium channel [1]: produced a stereo-selective block of the delayed rectifier potassium channel; cardiotoxicity / potentially fatal arrhythmias [2]: can induce potentially fatal arrhythmias; cardiotoxicity / potentially fatal arrhythmias ([2]; listed as Halofantrine): has been shown to cause cardiotoxicity
CCN(CC)CCCC(C)Nc1ccnc2cc(Cl)ccc12 (centres unmarked) [chloroquine]	torsades de pointes has been seen in patients	–	–
CCCCNCCC(O)c1cc2c(Cl)cc(Cl)cc2c2cc(C(F)(F)F)ccc12 (centres unmarked) [desbutylhalofantrine]	–	did not prolong the QT interval even when concentrations were increased to twenty fold the concentration at which halofantrine resulted in prolongation of the QT interval; also recorded: had minimal effect on the QT interval relative to the baseline	potency relative to parent compound halofantrine against clones of Plasmodium falciparum [4]: approximately equipotent with the parent compound; effectiveness for treatment of malaria relative to halofantrine [5]: less effective than halofantrine for treatment of malaria
C=C[C@H]1C[N@@]2CC[C@H]1C[C@@H]2[C@@H](O)c1ccnc2ccc(OC)cc12 [quinidine]	torsades de pointes has been seen in patients	–	–
C=C[C@H]1C[N@@]2CC[C@H]1C[C@H]2[C@H](O)c1ccnc2ccc(OC)cc12 [quinine]	torsades de pointes has been seen in patients	–	–
